Measurements reported in patent US4362743A, “Antibacterial monic acid esters” (Beecham Group Limited, priority 1980, dated 1982).
≈ marks a conversion by molar mass, not a printed value. Where two headings read alike, the source gives them in different places.

Assays:
Format in all cases: cell-based
[1] = test system: M. suipneumoniae TAM 6N; assay: Anti-mycoplasmal activity in vitro MIC; details: Mesomycoplasma hyopneumoniae, TAM6N, 144 h
[2] = test system: Strep. pyogenes R80/421; assay: Human bacteria MIC; details: Streptococcus pyogenes; Strep. pyogenes R80/421; nutrient agar, 5% chocolated horse blood, 18 hours 37° C.; read-out: M.I.C.
Description: (§1) The values were determined by serial dilutions in nutrient agar with 5% chocolated horse blood after incubations for 18 hours at 37° C.

[3] = test system: Ps. aeruginosa 10662; assay: Human bacteria MIC; details: Pseudomonas aeruginosa; Ps. aeruginosa 10662; nutrient agar, 5% chocolated horse blood, 18 hours 37° C.; read-out: M.I.C.
Description: as §1

[4] = test system: Staph. aureus Oxford; assay: Human bacteria MIC; details: Staphylococcus aureus; Staph. aureus Oxford; nutrient agar, 5% chocolated horse blood, 18 hours 37° C.; read-out: M.I.C.
Description: as §1

[5] = test system: Strep. Group C 64/848; assay: Human bacteria MIC
Description: as §1

[6] = test system: Corneybacterium xerosis 9755; assay: Human bacteria MIC; details: Corneybacterium xerosis 9755; nutrient agar, 5% chocolated horse blood, 18 hours 37° C.; read-out: M.I.C.
Description: as §1

[7] = test system: P. mirabilis 889; assay: Human bacteria MIC; details: Proteus mirabilis; P. mirabilis 889; nutrient agar, 5% chocolated horse blood, 18 hours 37° C.; read-out: M.I.C.
Description: as §1

[8] = test system: E. coli ESS; assay: Human bacteria MIC; details: Escherichia coli
Description: as §1

[9] = test system: Staph. aureus W2827; assay: Human bacteria MIC; details: Staphylococcus aureus; Staph. aureus W2827; nutrient agar, 5% chocolated horse blood, 18 hours 37° C.; read-out: M.I.C.
Description: as §1

[10] = test system: Staph. aureus Russell; assay: Human bacteria MIC; details: Staphylococcus aureus; Staph. aureus Russell; nutrient agar, 5% chocolated horse blood, 18 hours 37° C.; read-out: M.I.C.
Description: as §1

[11] = test system: Strep Group B 2788; assay: Human bacteria MIC
Description: as §1

[12] = test system: Strep. faecalis I; assay: Human bacteria MIC; details: Enterococcus faecalis, nutrient agar, 5% chocolated horse blood, 18 hours 37° C.
Description: as §1

[13] = test system: K. aerogenes A; assay: Human bacteria MIC; details: Klebsiella aerogenes; K. aerogenes A; nutrient agar, 5% chocolated horse blood, 18 hours 37° C.; read-out: M.I.C.
Description: as §1

[14] = test system: Strep. pneumoniae CN33; assay: Human bacteria MIC; details: Streptococcus pneumoniae; Strep. pneumoniae CN33; nutrient agar, 5% chocolated horse blood, 18 hours 37° C.; read-out: M.I.C.
Description: as §1

[15] = test system: Neisseria catarralis 1502; assay: Human bacteria MIC
Description: as §1

[16] = test system: Haemophilus influenzae Q1; assay: Human bacteria MIC
Description: as §1

[17] = test system: Pasteurella multocida 1633; assay: Human bacteria MIC
Description: as §1

[18] = test system: E. Coli NCT 10418; assay: Human bacteria MIC; details: Escherichia coli; E. Coli NCT 10418; nutrient agar, 5% chocolated horse blood, 18 hours 37° C.; read-out: M.I.C.
Description: as §1

[19] = test system: Bacillus subtilis 6633; assay: Human bacteria MIC
Description: as §1

[20] = test system: M. suipneumoniae Str. 11; assay: Anti-mycoplasmal activity in vitro MIC; details: Mesomycoplasma hyopneumoniae
[21] = test system: M. bovis NCTC 10131; assay: microbe, parasite or virus in culture; details: NCTC10131, 144 h
[22] = test system: M. suipneumoniae LABER; assay: Anti-mycoplasmal activity in vitro MIC; details: Mesomycoplasma hyopneumoniae, 144 h
[23] = test system: M. dispar NCTC 10125; assay: Anti-mycoplasmal activity in vitro MIC; details: 144 h
[24] = test system: M. suipneumoniae NCTC 10110; assay: Anti-mycoplasmal activity in vitro MIC; details: Mesomycoplasma hyopneumoniae, NCTC10110, 144 h
[25] = test system: M. bovigenitalium ATCC 14173; assay: Anti-mycoplasmal activity in vitro MIC; details: 144 h
[26] = test system: M. suipneumoniae HK (2); assay: Anti-mycoplasmal activity in vitro MIC; details: Mesomycoplasma hyopneumoniae, 144 h
[27] = test system: M. suipneumoniae ATCC 25095; assay: Anti-mycoplasmal activity in vitro MIC; details: Mesomycoplasma hyopneumoniae, ATCC25095, 144 h
[28] = test system: M. hyorhinis ATCC 25021; assay: Anti-mycoplasmal activity in vitro MIC; details: Mesomycoplasma hyorhinis, ATCC25021, 144 h
[29] = test system: M. suipneumoniae NB12; assay: Anti-mycoplasmal activity in vitro MIC; details: Mesomycoplasma hyopneumoniae
[30] = M. suipneumoniae TAM 6N, Friis broth, 0.9% agarose, 6 days 37° C., read-out: M.I.C.
[31] = M. suipneumoniae NCTC 10110, Friis broth, 0.9% agarose, 6 days 37° C., read-out: M.I.C.
[32] = M. suipneumoniae HK (2), Friis broth, 0.9% agarose, 6 days 37° C., read-out: M.I.C.
[33] = M. suipneumoniae ATCC 25095, Friis broth, 0.9% agarose, 6 days 37° C., read-out: M.I.C.
[34] = 144 h, M. suipneumoniae NB12, Friis broth, 0.9% agarose, 6 days 37° C., read-out: M.I.C.
[35] = Strep. Group C 64/848, nutrient agar, 5% chocolated horse blood, 18 hours 37° C., read-out: M.I.C.
[36] = E. coli ESS, nutrient agar, 5% chocolated horse blood, 18 hours 37° C., read-out: M.I.C.
[37] = Strep Group B 2788, nutrient agar, 5% chocolated horse blood, 18 hours 37° C., read-out: M.I.C.
[38] = Neisseria catarralis 1502, nutrient agar, 5% chocolated horse blood, 18 hours 37° C., read-out: M.I.C.
[39] = Pasteurella multocida 1633, nutrient agar, 5% chocolated horse blood, 18 hours 37° C., read-out: M.I.C.
[40] = Bacillus subtilis 6633, nutrient agar, 5% chocolated horse blood, 18 hours 37° C., read-out: M.I.C.

C/C(=C\C(=O)OC1CCC(=NO)CC1)C[C@@H]1OC[C@H](C[C@@H]2O[C@H]2[C@@H](C)[C@H](C)O)[C@@H](O)[C@H]1O (stereo partly shown) [Example 3, 4-Hydroxyiminocyclohexyl monate A]
MIC [1, 30]: 0.5 µg/mL (≈ 1.1 µM) | MIC [2]: 0.5 µg/mL (≈ 1.1 µM) | MIC [3]: > 100 µg/mL | MIC [4]: 2.5 µg/mL (≈ 5.49 µM) | MIC ([5]; 18 h): 1 µg/mL (≈ 2.2 µM) | MIC [6]: > 100 µg/mL | MIC [7]: > 100 µg/mL | MIC ([8]; 18 h): 1 µg/mL (≈ 2.2 µM) | MIC [9]: 5 µg/mL (≈ 11 µM) | MIC [10]: 5 µg/mL (≈ 11 µM) | MIC ([11]; 18 h): 1 µg/mL (≈ 2.2 µM) | MIC [12]: 25 µg/mL (≈ 54.9 µM) | MIC [13]: > 100 µg/mL | MIC [14]: 0.5 µg/mL (≈ 1.1 µM) | MIC ([15]; Neisseria, 1502, 18 h): 1 µg/mL (≈ 2.2 µM) | MIC ([16]; Haemophilus influenzae, Q1, 18 h): 0.25 µg/mL (≈ 0.549 µM) | MIC ([17]; Pasteurella multocida, 1633, 18 h): 1 µg/mL (≈ 2.2 µM) | MIC [18]: > 100 µg/mL | MIC ([19]; Bacillus subtilis, 6633, 18 h): 1 µg/mL (≈ 2.2 µM) | MIC ([20]; STR.11, 144 h): 0.25 µg/mL (≈ 0.549 µM) | MIC [21]: ≤ 0.01 µg/mL | MIC [22]: 0.25 µg/mL (≈ 0.549 µM) | MIC [23]: 0.1 µg/mL (≈ 0.22 µM) | MIC [24, 31]: 0.5 µg/mL (≈ 1.1 µM) | MIC [25]: 0.025 µg/mL (≈ 0.0549 µM) | MIC [26, 32]: 0.5 µg/mL (≈ 1.1 µM) | MIC [27, 33]: 0.5 µg/mL (≈ 1.1 µM) | MIC [28]: 0.25 µg/mL (≈ 0.549 µM) | MIC [29, 34]: 0.5 µg/mL (≈ 1.1 µM)

C/C(=C\C(=O)OCCCC(=NO)c1ccccc1)C[C@@H]1OC[C@H](C[C@@H]2O[C@H]2[C@@H](C)[C@H](C)O)[C@@H](O)[C@H]1O [Example 1, 4-Hydroxyimino-4-phenylbutyl monate A]
MIC [1, 30]: 0.25 µg/mL (≈ 0.494 µM) | MIC [2]: 2.5 µg/mL (≈ 4.94 µM) | MIC [3]: > 100 µg/mL | MIC [4]: 2.5 µg/mL (≈ 4.94 µM) | MIC [5, 35]: 2.5 µg/mL (≈ 4.94 µM) | MIC [7]: > 100 µg/mL | MIC [8, 36]: 2.5 µg/mL (≈ 4.94 µM) | MIC [9]: 2.5 µg/mL (≈ 4.94 µM) | MIC [10]: 2.5 µg/mL (≈ 4.94 µM) | MIC [11, 37]: 2.5 µg/mL (≈ 4.94 µM) | MIC [12]: > 100 µg/mL | MIC [13]: > 100 µg/mL | MIC [14]: 0.5 µg/mL (≈ 0.989 µM) | MIC [15, 38]: 0.2 µg/mL (≈ 0.396 µM) | MIC ([16]; Haemophilus influenzae Q1, nutrient agar, 5% chocolated horse blood, 18 hours 37° C., read-out: M.I.C.): 0.5 µg/mL (≈ 0.989 µM) | MIC [17, 39]: 5 µg/mL (≈ 9.89 µM) | MIC [18]: > 100 µg/mL | MIC [19, 40]: 1 µg/mL (≈ 1.98 µM) | MIC ([20]; 144 h, M. suipneumoniae Str. 11, Friis broth, 0.9% agarose, 6 days 37° C., read-out: M.I.C.): 0.1 µg/mL (≈ 0.198 µM) | MIC [21]: ≤ 0.01 µg/mL | MIC ([22]; M. suipneumoniae LABER, Friis broth, 0.9% agarose, 6 days 37° C., read-out: M.I.C.): 0.1 µg/mL (≈ 0.198 µM) | MIC [23]: 0.05 µg/mL (≈ 0.0989 µM) | MIC [24, 31]: 0.25 µg/mL (≈ 0.494 µM) | MIC [25]: 0.025 µg/mL (≈ 0.0494 µM) | MIC [26, 32]: 0.25 µg/mL (≈ 0.494 µM) | MIC [27, 33]: 0.25 µg/mL (≈ 0.494 µM) | MIC [28]: 0.1 µg/mL (≈ 0.198 µM) | MIC [29, 34]: 0.1 µg/mL (≈ 0.198 µM)

C/C(=C\C(=O)OCCCC(=NNC(N)=O)c1ccccc1)C[C@@H]1OC[C@H](C[C@@H]2O[C@H]2[C@@H](C)[C@H](C)O)[C@@H](O)[C@H]1O [Example 2, 4-Phenyl-4-semicarbazonobutyl monate A]
MIC [1]: 0.5 µg/mL (≈ 0.913 µM) | MIC [2]: 2.5 µg/mL (≈ 4.56 µM) | MIC [3]: 100 µg/mL (≈ 183 µM) | MIC [4]: 5 µg/mL (≈ 9.13 µM) | MIC [5, 35]: 5 µg/mL (≈ 9.13 µM) | MIC [6]: > 100 µg/mL | MIC [7]: > 100 µg/mL | MIC [8, 36]: 5 µg/mL (≈ 9.13 µM) | MIC [9]: 10 µg/mL (≈ 18.3 µM) | MIC [10]: 10 µg/mL (≈ 18.3 µM) | MIC [11, 37]: 2.5 µg/mL (≈ 4.56 µM) | MIC [12]: > 100 µg/mL | MIC [13]: > 100 µg/mL | MIC [14]: 1 µg/mL (≈ 1.83 µM) | MIC [15, 38]: 1 µg/mL (≈ 1.83 µM) | MIC [17, 39]: 10 µg/mL (≈ 18.3 µM) | MIC [18]: > 100 µg/mL | MIC [19, 40]: 2.5 µg/mL (≈ 4.56 µM) | MIC ([20]; STR.11, 144 h): 0.25 µg/mL (≈ 0.456 µM) | MIC [21]: 0.05 µg/mL (≈ 0.0913 µM) | MIC [22]: 0.25 µg/mL (≈ 0.456 µM) | MIC [23]: 0.1 µg/mL (≈ 0.183 µM) | MIC [24]: 0.5 µg/mL (≈ 0.913 µM) | MIC [25]: 0.1 µg/mL (≈ 0.183 µM) | MIC [26]: 0.5 µg/mL (≈ 0.913 µM) | MIC [27]: 0.25 µg/mL (≈ 0.456 µM) | MIC [28]: 0.25 µg/mL (≈ 0.456 µM) | MIC ([29]; NB12, 144 h): 0.25 µg/mL (≈ 0.456 µM)
